Assays:
Experiment in all cases: Bliss excess, mean over the matrix (fraction); higher = more synergy
[1] = system: MOLM-13 (Acute Myeloid Leukemia)
Summary of the method: (§1)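 Cell lines grown in DMEM/F12 or RPMI with 10% FBS were plated in 1536-well plates and held 24 hours at 37°C, 5% CO2 before 72 hours of exposure to two-drug dose matrices, with DMSO typically at 0.2%. CellTiter-Glo 2.0 luminescence gave viability, which was converted to inhibition. Vehicle wells were set to 0 and blank wells to 1. Combination Emax is the second-highest inhibition in the matrix, and Bliss excess is the observed combination effect minus the expected EA + EB − EA·EB, where EA and EB are the single-agent effects.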

[2] = system: KYSE-270 (Esophageal Squamous Cell Carcinoma)
Summary of the method: as §1

[3] = system: NCI-H526 (Small Cell Lung Carcinoma)
Summary of the method: as §1

[4] = system: SK-GT-2 (Gastric Carcinoma)
Summary of the method: as §1

[5] = system: KMS-12-BM (Plasma Cell Myeloma)
Summary of the method: as §1

[6] = system: SUP-B15 (B-Lymphoblastic Leukemia)
Summary of the method: as §1

M059J (Glioblastoma) = system: M059J (Glioblastoma)
Summary of the method: as §1

[7] = system: DMS-114 (Small Cell Lung Carcinoma)
Summary of the method: as §1

[8] = system: COR-L279 (Small Cell Lung Carcinoma)
Summary of the method: as §1

[9] = system: SNU-398 (Hepatocellular Carcinoma)
Summary of the method: as §1

[10] = system: RPMI-8226 (Plasma Cell Myeloma)
Summary of the method: as §1

[11] = system: NCCIT (Other Solid Carcinomas)
Summary of the method: as §1

[12] = system: HCC1419 (Breast Carcinoma)
Summary of the method: as §1

[13] = system: KP-3 (Pancreatic Carcinoma)
Summary of the method: as §1

[14] = system: MN-60 (B-Lymphoblastic Leukemia)
Summary of the method: as §1

[15] = system: VMRC-RCZ (Kidney Carcinoma)
Summary of the method: as §1

[16] = system: ST486 (Burkitt's Lymphoma)
Summary of the method: as §1

[17] = system: 8505C (Thyroid Gland Carcinoma)
Summary of the method: as §1

[18] = system: CW-2 (Colorectal Carcinoma)
Summary of the method: as §1

[19] = system: DAN-G (Pancreatic Carcinoma)
Summary of the method: as §1

| SMILES | Bliss excess [1] | Bliss excess [2] | Bliss excess [3] | Bliss excess [4] | Bliss excess [5] | Bliss excess [6] | Bliss excess (M059J (Glioblastoma)) | Bliss excess [7] | Bliss excess [8] | Bliss excess [9] | Bliss excess [10] | Bliss excess [11] | Bliss excess [12] | Bliss excess [13] | Bliss excess [14] | Bliss excess [15] | Bliss excess [16] | Bliss excess [17] | Bliss excess [18] | Bliss excess [19] |
| --- | --- | --- | --- | --- | --- | --- | --- | --- | --- | --- | --- | --- | --- | --- | --- | --- | --- | --- | --- | --- |
| COc1cc2ncnc(Nc3ccc(F)c(Cl)c3)c2cc1OCCCN1CCOCC1 [Gefitinib] + CC(C)n1c(=O)n(C)c2cnc3cc(F)c(-c4ccc(OCCCN5CCCCC5)nc4)cc3c21 [AZD1390] (first compound max 10 µM, 7x7, partner max 0.3 µM) | -0.0462 | -0.003 | -0.0342 | -0.0382 | -0.0267 | -0.0673 | -0.0325 | -0.0579 | -0.0419 | -0.0627 | -0.0547 | -0.0466 | -0.0216 | -0.074 | -0.0444 | -0.0621 | -0.0874 | -0.0691 | -0.031 |  |
| NC1(C(=O)N[C@@H](CCO)c2ccc(Cl)cc2)CCN(c2ncnc3[nH]ccc23)CC1 [Capivasertib] + CC(C)n1c(=O)n(C)c2cnc3cc(F)c(-c4ccc(OCCCN5CCCCC5)nc4)cc3c21 [AZD1390] (first compound max 10 µM, 7x7, partner max 0.3 µM) | -0.067 | -0.0296 | 0.0062 | -0.0342 | -0.0274 | -0.0059 | 0.0135 | -0.0465 | -0.0055 | -0.0579 | -0.0096 | -0.0628 |  | -0.0596 | -0.0685 | -0.035 | -0.0363 | -0.0376 | -0.0469 | -0.111 |
| CC(=O)c1c(C)c2cnc(Nc3ccc(N4CCNCC4)cn3)nc2n(C2CCCC2)c1=O [Palbociclib] + Cc1c2c(nn1C)CSCc1cc(n(C)n1)CSc1cc(c3ccccc3c1)OCCCc1c(C(=O)O)n(C)c3c-2c(Cl)ccc13 [AZD5991] (first compound max 10 µM, 7x7, partner max 1 µM) | -0.0314 | -0.0804 | 0.0026 | -0.021 | 0.035 | -0.207 | -0.0303 | -0.0083 | 0.006 | 0.0128 | -0.0191 | -0.0538 |  | -0.0436 | -0.0363 | -0.026 | -0.0457 | -0.175 | -0.0111 | -0.0356 |
| CS(=O)(=O)CCNCc1ccc(-c2ccc3ncnc(Nc4ccc(OCc5cccc(F)c5)c(Cl)c4)c3c2)o1 [Lapatinib] + C[C@@H](Oc1cc(-c2cnn(C3CCNCC3)c2)cnc1N)c1c(Cl)ccc(F)c1Cl [Crizotinib] (first compound max 10 µM, 7x7, partner max 10 µM) | 0.0308 | -0.0054 | 0.0069 | -0.0154 | 0.0256 | 0.024 | -0.0733 | -0.017 | -0.06 | -0.0451 | -0.0127 | 0.0045 |  | -0.0234 | -0.0288 | -0.0291 | -0.0366 | -0.0441 | -0.0146 | 0.0148 |
| NC1(C(=O)N[C@@H](CCO)c2ccc(Cl)cc2)CCN(c2ncnc3[nH]ccc23)CC1 [Capivasertib] + Cn1cnc2c(F)c(Nc3ccc(Br)cc3Cl)c(C(=O)NOCCO)cc21 [Selumetinib] (first compound max 10 µM, 7x7, partner max 10 µM) | 0.0677 | 0.0691 | 0.0296 | 0.063 | 0.0441 | 0.0854 | -0.0162 | 0.0203 | 0.0214 | 0.0287 | 0.0411 | 0.059 |  | 0.0087 | -0.0652 | -0.0066 | 0.0217 | 0.0302 | -0.0035 | -0.002 |
| CS(=O)(=O)CCNCc1ccc(-c2ccc3ncnc(Nc4ccc(OCc5cccc(F)c5)c(Cl)c4)c3c2)o1 [Lapatinib] + NC1(c2ccc(-c3nc4ccn5c(=O)[nH]nc5c4cc3-c3ccccc3)cc2)CCC1 [MK-2206] (first compound max 10 µM, 7x7, partner max 10 µM) |  | 0.0262 | 0.0254 |  |  |  | -0.0047 | 0.0721 | 0.0229 |  |  | -0.0143 |  | -0.0194 | 0.0332 | 0.0019 | 0.0266 |  | -0.0434 |  |
| Cc1nc(Nc2ncc(C(=O)Nc3c(C)cccc3Cl)s2)cc(N2CCN(CCO)CC2)n1 [Dasatinib] + CC(=O)Nc1cccc(-n2c(=O)n(C3CC3)c(=O)c3c(Nc4ccc(I)cc4F)n(C)c(=O)c(C)c32)c1 [Trametinib] (first compound max 2 µM, 7x7, partner max 1 µM) | 0.0284 | -0.0142 | -0.0323 | -0.0013 | -0.0046 | -0.0562 | -0.0946 | -0.0036 | -0.0073 | -0.0842 | 0.0121 | -0.0842 |  | 0.0304 | -0.029 | -0.0257 | -0.0987 | 0.0809 | 0.0129 | 0.138 |
| NC1(C(=O)N[C@@H](CCO)c2ccc(Cl)cc2)CCN(c2ncnc3[nH]ccc23)CC1 [Capivasertib] + CCN(CCO)CCCOc1ccc2c(Nc3cc(CC(=O)Nc4cccc(F)c4)[nH]n3)ncnc2c1 [AZD2811] (first compound max 10 µM, 7x7, partner max 1 µM) | -0.0086 | -0.0289 | -0.0052 | -0.0239 | 0.0502 | -0.103 | -0.0328 | 0.0039 | -0.054 | 0.0216 | -0.0101 | 0.0475 |  | -0.03 | -0.0095 | -0.046 | -0.0396 | 0.0134 | -0.0348 | 0.004 |
| C=CCn1c(=O)c2cnc(Nc3ccc(N4CCN(C)CC4)cc3)nc2n1-c1cccc(C(C)(C)O)n1 [AZD1775] + O=C(c1cc(Cc2n[nH]c(=O)c3ccccc23)ccc1F)N1CCN(C(=O)C2CC2)CC1 [Olaparib] (first compound max 1 µM, partner max 10 µM) | 0.0405 | -0.0166 | -0.0152 | -0.0139 | -0.0239 | -0.0148 | 0.0374 | -0.021 | -0.0572 | -0.0396 | -0.0366 | -0.0458 | -0.047 | -0.0118 | -0.0143 | -0.0443 | -0.0197 |  | 0.0127 | -0.0142 |
| CC(=O)c1c(C)c2cnc(Nc3ccc(N4CCNCC4)cn3)nc2n(C2CCCC2)c1=O [Palbociclib] + Cn1cnc2c(F)c(Nc3ccc(Br)cc3Cl)c(C(=O)NOCCO)cc21 [Selumetinib] (first compound max 10 µM, 7x7, partner max 10 µM) | 0.0262 | -0.0512 | -0.0213 | -0.0175 | 0.0219 | 0.0147 | -0.0441 | -0.0065 | -0.025 | -0.0388 | 0.142 | -0.0291 |  | -0.0328 | -0.0405 | -0.0367 | 0.151 | -0.0377 | 0.0099 | -0.0077 |
| CC(=O)c1c(C)c2cnc(Nc3ccc(N4CCNCC4)cn3)nc2n(C2CCCC2)c1=O [Palbociclib] + CC1(C)CCC(CN2CCN(c3ccc(C(=O)NS(=O)(=O)c4ccc(NCC5CCOCC5)c([N+](=O)[O-])c4)c(Oc4cnc5[nH]ccc5c4)c3)CC2)=C(c2ccc(Cl)cc2)C1 [Venetoclax] (first compound max 10 µM, 7x7, partner max 1 µM) | 0.04 | -0.0349 | -0.0033 | -0.0342 | 0.0637 | -0.0176 | -0.0511 | -0.0282 | -0.002 | 0.0232 | 0.0461 | -0.0412 |  | -0.0533 | -0.0666 | -0.0479 | -0.0755 | -0.0584 | 0.0067 | -0.0324 |
| NC1(C(=O)N[C@@H](CCO)c2ccc(Cl)cc2)CCN(c2ncnc3[nH]ccc23)CC1 [Capivasertib] + COc1nnc2ccc(N3CCC(c4ccc(OCCN5CCN(C)C(=O)[C@H]5C)cc4)CC3)nn12 [AZD5153] (first compound max 10 µM, 7x7, partner max 1 µM) | 0.0145 | 0.124 | -0.0213 | 0.0448 | 0.0409 | 0.0274 | -0.0266 | 0.0259 | 0.0735 | 0.0733 | 0.0244 | 0.0382 |  | 0.0226 | -0.042 | 0.0171 | -0.0552 | 0.0008 | 0.0459 | 0.0578 |
| NC1(C(=O)N[C@@H](CCO)c2ccc(Cl)cc2)CCN(c2ncnc3[nH]ccc23)CC1 [Capivasertib] + CC(=O)c1c(C)c2cnc(Nc3ccc(N4CCNCC4)cn3)nc2n(C2CCCC2)c1=O [Palbociclib] (first compound max 10 µM, 7x7, partner max 10 µM) | -0.0098 | -0.0135 | -0.0331 | 0.0012 | 0.0977 | -0.007 | -0.0489 | -0.0203 | -0.0443 | -0.057 | 0.01 | 0.0183 |  | -0.0372 | -0.0365 | 0.0321 | -0.0616 | -0.0475 | 0.0329 | -0.0581 |
| NC1(C(=O)N[C@@H](CCO)c2ccc(Cl)cc2)CCN(c2ncnc3[nH]ccc23)CC1 [Capivasertib] + C[C@@H]1COCCN1C2=NC(=NC(=C2)C3(CC3)[S@](=N)(=O)C)C4=C5C=CNC5=NC=C4 [AZD6738] (first compound max 10 µM, 7x7, partner max 10 µM) | -0.02 | -0.0847 | -0.0193 | -0.001 | 0.0398 | 0.0044 | -0.0366 | -0.0067 | 0.0329 | -0.0748 | -0.0344 | -0.0139 |  | -0.0499 | -0.0337 | -0.0106 | -0.0785 | -0.0138 | -0.0298 | -0.0679 |
| CCc1c2c(nc3ccc(O)cc13)-c1cc3c(c(=O)n1C2)COC(=O)[C@]3(O)CC [SN-38] + O=C(c1cc(Cc2n[nH]c(=O)c3ccccc23)ccc1F)N1CCN(C(=O)C2CC2)CC1 [Olaparib] (first compound max 0.3 µM, 7x7, partner max 10 µM) |  | 0.0159 | 0.0278 |  |  |  | 0.0784 | 0.0741 | 0.0742 | 0.0008 |  | 0.0062 |  | -0.0338 | 0.0066 | 0.0072 | 0.0826 | 0.0498 | 0.0293 |  |

Reference: the supplement of paper PMC11061612
